Assay results published in the supplement of paper PMC10307832.

Tests used:
Assay in all cases: relative viability (nuclei count vs DMSO), 5 days (fraction); higher = more cells survive
BAM7 + Decitabine = compound: CCOC1=CC=CC=C1N=NC2=C(NN(C2=O)C3=NC(=CS3)C4=CC=CC=C4)C [BAM7] + Nc1ncn([C@H]2C[C@H](O)[C@@H](CO)O2)c(=O)n1 [Decitabine] (partner 2 µM)
How it was run: (§1)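 Relative viability is defined as nuclei in treated wells over nuclei in vehicle wells. Duplicate plates were run and medians reported. Lung cancer cell lines in 1536-well plates were dosed by pin tool one day after seeding, with one drug or with a fixed anchor-drug dose plus five library-drug doses (not always all listed) in √10 steps, and nuclei were counted after 5 days.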

BAM7 + Crizotinib = compound: CCOC1=CC=CC=C1N=NC2=C(NN(C2=O)C3=NC(=CS3)C4=CC=CC=C4)C [BAM7] + C[C@@H](Oc1cc(-c2cnn(C3CCNCC3)c2)cnc1N)c1c(Cl)ccc(F)c1Cl [Crizotinib] (partner 1 µM)
How it was run: as §1

BAM7 + OSI-027 = compound: CCOC1=CC=CC=C1N=NC2=C(NN(C2=O)C3=NC(=CS3)C4=CC=CC=C4)C [BAM7] + COc1cccc2cc(-c3nc([C@H]4CC[C@H](C(=O)O)CC4)n4ncnc(N)c34)[nH]c12 [OSI-027] (partner 0.5 µM)
How it was run: as §1

[1] = compound: CCn1c(-c2nonc2N)nc2c(C#CC(C)(C)O)ncc(OC[C@H]3CCCNC3)c21 + COc1cccc2cc(-c3nc([C@H]4CC[C@H](C(=O)O)CC4)n4ncnc(N)c34)[nH]c12 [OSI-027] (partner 0.5 µM)
How it was run: as §1

Cell Line	relative viability (BAM7 + Decitabine; first compound 0.5 µM)	relative viability (BAM7 + Decitabine; first compound 5 µM)	relative viability (BAM7 + Decitabine; first compound 15.81 µM)	relative viability (BAM7 + Decitabine; first compound 50 µM)	relative viability (BAM7 + Crizotinib; first compound 0.5 µM)	relative viability (BAM7 + Crizotinib; first compound 5 µM)	relative viability (BAM7 + Crizotinib; first compound 50 µM)	relative viability (BAM7 + OSI-027; first compound 0.5 µM)	relative viability (BAM7 + OSI-027; first compound 5 µM)	relative viability (BAM7 + OSI-027; first compound 15.81 µM)	relative viability (BAM7 + OSI-027; first compound 50 µM)	relative viability ([1]; first compound 0.01 µM)	relative viability ([1]; first compound 0.03162 µM)	relative viability ([1]; first compound 0.1 µM)	relative viability ([1]; first compound 0.3162 µM)	relative viability ([1]; first compound 1 µM)	relative viability (BAM7 + Crizotinib; first compound 15.81 µM)
NCI-H1975	0.372	0.377	0.351	0.382	0.792	0.773	0.824	0.496	0.525	0.465	0.532	0.747	0.824	0.616	0.57	0.6	–
CAL-12T	–	–	–	–	0.737	0.941	0.652	0.553	0.492	0.432	0.845	0.424	0.541	0.685	0.453	0.38	0.695
NCI-H1623	–	–	–	–	–	–	–	0.422	0.383	0.368	0.349	0.391	0.423	0.485	0.438	0.395	–
HCC-44	0.96	0.938	0.926	0.949	0.883	0.907	0.787	0.534	0.61	0.476	0.505	–	–	0.484	0.372	0.499	0.749
EKVX	0.372	0.355	0.284	0.334	1.15	0.963	0.711	0.648	0.768	0.557	0.662	0.685	0.671	0.678	0.686	0.752	0.54
NCI-H1651	0.598	0.66	0.617	0.599	0.826	0.889	0.886	0.657	0.758	0.7	0.653	0.719	0.676	0.723	0.563	0.9	0.871
NCI-H1944	0.407	0.405	0.41	0.403	0.984	1.15	0.821	0.39	0.439	0.434	0.445	0.367	0.403	0.434	0.37	0.401	0.839
NCI-H1703	–	–	–	–	0.694	0.652	0.633	–	–	–	–	–	–	–	–	–	0.621
Calu-6	–	–	–	–	0.883	0.903	0.675	–	–	–	–	–	–	–	–	–	0.783
EBC-1	–	–	–	–	0.216	0.201	0.175	–	–	–	–	–	–	–	–	–	0.191
SW 1573	0.502	0.551	0.636	0.594	0.974	0.962	0.8	0.753	0.708	0.591	0.711	0.59	0.559	0.514	0.34	0.27	0.778
A-427	0.531	0.551	0.543	0.569	0.927	1	0.817	0.58	0.466	0.491	0.49	0.413	0.578	0.367	0.509	0.443	0.814
NCI-H2347	0.598	0.736	0.641	0.606	0.738	0.995	0.745	0.478	0.446	–	0.4	0.419	0.42	–	0.466	0.336	0.674
NCI-H1355	0.357	0.357	0.319	0.37	0.968	1.05	0.987	0.441	0.374	0.385	0.395	0.451	0.379	0.378	0.393	0.424	0.937
NCI-H358	–	0.199	0.232	0.224	0.76	0.589	0.52	0.832	0.899	0.796	0.908	0.723	0.822	0.692	0.445	0.373	0.522
PC-3 [JPC-3]	0.775	0.808	0.688	0.766	0.913	0.942	0.827	0.668	0.698	0.698	0.668	0.786	0.699	0.808	0.736	0.682	0.784
NCI-H2228	–	–	–	–	0.657	0.426	0.641	0.716	0.545	0.593	0.594	0.628	0.559	0.446	0.421	0.279	0.349
HOP-62	0.191	0.256	0.226	0.255	0.931	1.02	0.854	0.888	0.87	0.808	0.92	0.834	0.748	0.695	0.769	0.78	0.83
HARA	0.538	0.59	0.545	0.531	1.1	1.15	1	0.53	0.63	0.468	0.485	0.5	0.575	0.368	0.472	0.459	0.887
NCI-H838	0.514	0.447	0.452	0.478	0.867	0.904	0.783	0.365	0.435	0.405	0.379	0.354	0.406	0.367	0.401	0.428	0.803
NCI-H1755	0.667	0.774	0.711	0.793	0.917	0.935	0.85	0.81	0.698	0.689	0.719	0.704	0.697	0.704	0.69	0.638	0.829
HCC-78	0.965	0.696	0.731	0.752	0.339	0.334	0.308	0.39	0.372	0.423	0.384	0.405	0.386	0.325	0.331	0.341	0.324
